Measured values taken from patent US12409139B2, “Stable parenteral formulations of duloxetine” (LEIUTIS PHARMACEUTICALS LLP, priority 2020, dated 2025).
Read-outs that look alike come from different tables or passages of the source.

Legend:
[1] = for Assay (%) / Total Impurities / pH: RT-25° C.
Description: The solution state stability of duloxetine was studied in various buffers for 24 hours.
The samples were stored for 24 hours and analyzed for pH, assay and total impurities by standard analytical procedures.

[2] = commercial delayed release (enteric coated) capsules, oral; cited from earlier work
[3] = Acetate Buffer (pH-5.5), Initial
[4] = Acetate Buffer (pH-6.4), Initial
[5] = Aspartic acid + Boric Acid Buffer (pH-5.5), 24 h
[6] = Aspartic acid + Boric Acid Buffer (pH-5.5), Initial
[7] = Aspartic acid + Boric Acid Buffer (pH-6.4), 24 h
[8] = Aspartic acid + Boric Acid Buffer (pH-6.4), Initial
[9] = Glycine Buffer (pH-5.5), Initial
[10] = Glycine Buffer (pH-6.4), Initial
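Throughout, for Solubility observation: solubility and solution-stability study of the drug dissolved in assorted buffers across a range of pH values.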

With `CNCCC(Oc1cccc2ccccc12)c1cccs1` (single isomer, unassigned; (+)) [duloxetine, (+)-N-methyl-3-(1-naphthalenyloxy)-3-(2-thienyl) propan-1-amine] the “Assay (%)” value ([1]; Acetate Buffer (pH-5.5), 24 h) was 92.4%, the “Total Impurities” value ([1]; Acetate Buffer (pH-5.5), 24 h) was 0.2 and the pH ([1]; Acetate Buffer (pH-5.5), 24 h) was 5.4. For the same molecule, the “Assay (%)” value [1, 3] was 93.9%, the “Total Impurities” value [1, 3] was 0.14 and the pH [1, 3] was 5.32. The “Assay (%)” value ([1]; Acetate Buffer (pH-6.4), 24 h) was 90.3%, the “Total Impurities” value ([1]; Acetate Buffer (pH-6.4), 24 h) was 0.1 and the pH ([1]; Acetate Buffer (pH-6.4), 24 h) was 6.1. The “Assay (%)” value [1, 4] was 94.3%, the “Total Impurities” value [1, 4] was 0.1 and the pH [1, 4] was 6.38. The “Assay (%)” value [1, 5] was 93.3%, the “Total Impurities” value [1, 5] was 0.5 and the pH [1, 5] was 5.7. For the same molecule, the “Assay (%)” value [1, 6] was 93.0%, the “Total Impurities” value [1, 6] was 0.3 and the pH [1, 6] was 5.8. For the same molecule, the “Assay (%)” value [1, 7] was 97.8%, the “Total Impurities” value [1, 7] was 0.5 and the pH [1, 7] was 6.5. The “Assay (%)” value [1, 8] was 97.9%, the “Total Impurities” value [1, 8] was 0.3 and the pH [1, 8] was 6.6. For the same molecule, the “Assay (%)” value ([1]; Glycine Buffer (pH-5.5), 24 h) was 104.8%, the “Total Impurities” value ([1]; Glycine Buffer (pH-5.5), 24 h) was 0.2 and the pH ([1]; Glycine Buffer (pH-5.5), 24 h) was 5.5. The “Assay (%)” value [1, 9] was 105%, the “Total Impurities” value [1, 9] was 0.12 and the pH [1, 9] was 5.59. For the same molecule, the “Assay (%)” value ([1]; Glycine Buffer (pH-6.4), 24 h) was 96.6%, the “Total Impurities” value ([1]; Glycine Buffer (pH-6.4), 24 h) was 0.18 and the pH ([1]; Glycine Buffer (pH-6.4), 24 h) was 6.35. For the same molecule, the “Assay (%)” value [1, 10] was 97.7%, the “Total Impurities” value [1, 10] was 0.10 and the pH [1, 10] was 6.23. The “Solution state stability in terms of assay and total impurities (in words)” value ([1]; acetate buffer at pH-5.5 and pH-6.4 and glycine buffer at pH-5.5 and pH-6.4, 24 hours) was “best results”, the “Solution state stability (in words)” value ([1]; all the buffers tested, stored for 24 hours) was “satisfactory stability” and the Solubility observation (0.1N Sodium hydroxide buffer, pH 4.5, 10 mg/ml) was “Insoluble”. For the same molecule, the Solubility observation (0.1N Sodium hydroxide buffer, pH 5.5, 10 mg/ml) was “Insoluble”, the Solubility observation (0.1N Sodium hydroxide buffer, pH 6.4, 10 mg/ml) was “Insoluble” and the Solubility observation (Acetate buffer, pH 4.5, 10 mg/ml) was “Clear solution”. For the same molecule, the Solubility observation (Acetate buffer, pH 5.5, 10 mg/ml) was “Clear solution”, the Solubility observation (Acetate buffer, pH 6.4, 10 mg/ml) was “Clear solution” and the Solubility observation (Acetate buffer, pH 7.5, 10 mg/ml) was “Clear solution”. For the same molecule, the Solubility observation (Alanine buffer, pH 4.5, 10 mg/ml) was “Clear solution”, the Solubility observation (Alanine buffer, pH 5.5, 10 mg/ml) was “Clear solution” and the Solubility observation (Alanine buffer, pH 6.4, 10 mg/ml) was “Insoluble”. For the same molecule, the Solubility observation (Aspartic acid and Boric acid buffer, pH 4.5, 10 mg/ml) was “Clear solution”, the Solubility observation (Aspartic acid and Boric acid buffer, pH 5.5, 10 mg/ml) was “Clear solution” and the Solubility observation (Aspartic acid and Boric acid buffer, pH 6.4, 10 mg/ml) was “Insoluble”. For the same molecule, the Solubility observation (Citrate buffer, pH 4.5, 10 mg/ml) was “Insoluble”, the Solubility observation (Citrate buffer, pH 5.5, 10 mg/ml) was “Insoluble” and the Solubility observation (Citrate buffer, pH 6.4, 10 mg/ml) was “Insoluble”. For the same molecule, the Solubility observation (Glycine buffer, pH 4.5, 10 mg/ml) was “Clear solution”, the Solubility observation (Glycine buffer, pH 5.5, 10 mg/ml) was “Clear solution” and the Solubility observation (Glycine buffer, pH 6.4, 10 mg/ml) was “Clear solution”. The Solubility observation (Glycine buffer, pH 7.5, 10 mg/ml) was “Clear solution”, the Solubility observation (Histidine buffer, pH 4.5, 10 mg/ml) was “Insoluble” and the Solubility observation (Histidine buffer, pH 5.5, 10 mg/ml) was “Insoluble”. The Solubility observation (Histidine buffer, pH 6.4, 10 mg/ml) was “Insoluble”, the Solubility observation (Isoleucine buffer, pH 4.5, 10 mg/ml) was “Clear solution” and the Solubility observation (Isoleucine buffer, pH 5.5, 10 mg/ml) was “Clear solution”. For the same molecule, the Solubility observation (Isoleucine buffer, pH 6.4, 10 mg/ml) was “Clear solution”, the Solubility observation (Isoleucine buffer, pH 7.5, 10 mg/ml) was “Clear solution” and the Solubility observation (Lactic acid buffer, pH 4.5, 10 mg/ml) was “Clear solution”. For the same molecule, the Solubility observation (Lactic acid buffer, pH 5.5, 10 mg/ml) was “Clear solution”, the Solubility observation (Lactic acid buffer, pH 6.4, 10 mg/ml) was “Clear solution” and the Solubility observation (Lactic acid buffer, pH 7.5, 10 mg/ml) was “Clear solution”. The Solubility observation (Leucine buffer, pH 4.5, 10 mg/ml) was “Clear solution”, the Solubility observation (Leucine buffer, pH 5.5, 10 mg/ml) was “Clear solution” and the Solubility observation (Leucine buffer, pH 6.4, 10 mg/ml) was “Clear solution”. For the same molecule, the Solubility observation (Leucine buffer, pH 7.5, 10 mg/ml) was “Clear solution”, the Solubility observation (Lysine buffer, pH 4.5, 10 mg/ml) was “Insoluble” and the Solubility observation (Lysine buffer, pH 5.5, 10 mg/ml) was “Insoluble”. The Solubility observation (Lysine buffer, pH 6.4, 10 mg/ml) was “Insoluble”, the Solubility observation (Meglumine buffer, pH 4.5, 10 mg/ml) was “Insoluble” and the Solubility observation (Meglumine buffer, pH 5.5, 10 mg/ml) was “Insoluble”. For the same molecule, the Solubility observation (Meglumine buffer, pH 6.4, 10 mg/ml) was “Insoluble”, the Solubility observation (Methionine buffer, pH 4.5, 10 mg/ml) was “Clear solution” and the Solubility observation (Methionine buffer, pH 5.5, 10 mg/ml) was “Clear solution”. For the same molecule, the Solubility observation (Methionine buffer, pH 6.4, 10 mg/ml) was “Clear solution”, the Solubility observation (Methionine buffer, pH 7.5, 10 mg/ml) was “Clear solution” and the Solubility observation (Phenyl alanine buffer, pH 4.5, 10 mg/ml) was “Clear solution”. The Solubility observation (Phenyl alanine buffer, pH 5.5, 10 mg/ml) was “Clear solution”, the Solubility observation (Phenyl alanine buffer, pH 6.4, 10 mg/ml) was “Insoluble” and the Solubility observation (Phosphate buffer, pH 4.5, 10 mg/ml) was “Clear solution”. For the same molecule, the Solubility observation (Phosphate buffer, pH 5.5, 10 mg/ml) was “Insoluble”, the Solubility observation (Phosphate buffer, pH 6.4, 10 mg/ml) was “Insoluble” and the Solubility observation (Proline buffer, pH 4.5, 10 mg/ml) was “Clear solution”. For the same molecule, the Solubility observation (Proline buffer, pH 5.5, 10 mg/ml) was “Clear solution”, the Solubility observation (Proline buffer, pH 6.4, 10 mg/ml) was “Clear solution” and the Solubility observation (Proline buffer, pH 7.5, 10 mg/ml) was “Clear solution”. The Solubility observation (Serine buffer, pH 4.5, 10 mg/ml) was “Clear solution”, the Solubility observation (Serine buffer, pH 5.5, 10 mg/ml) was “Clear solution” and the Solubility observation (Serine buffer, pH 6.4, 10 mg/ml) was “Clear solution”. The Solubility observation (Serine buffer, pH 7.5, 10 mg/ml) was “Insoluble”, the Solubility observation (Sodium phosphate buffer, pH 4.5, 10 mg/ml) was “Clear solution” and the Solubility observation (Sodium phosphate buffer, pH 5.5, 10 mg/ml) was “Insoluble”. The Solubility observation (Sodium phosphate buffer, pH 6.4, 10 mg/ml) was “Insoluble”, the Solubility observation (Succinate buffer, pH 4.5, 10 mg/ml) was “Clear solution” and the Solubility observation (Succinate buffer, pH 5.5, 10 mg/ml) was “Insoluble”. The Solubility observation (Succinate buffer, pH 6.4, 10 mg/ml) was “Insoluble”, the Solubility observation (Tartaric acid buffer, pH 4.5, 10 mg/ml) was “Insoluble” and the Solubility observation (Tartaric acid buffer, pH 5.5, 10 mg/ml) was “Insoluble”. For the same molecule, the Solubility observation (Tartaric acid buffer, pH 6.4, 10 mg/ml) was “Insoluble”, the Solubility observation (Tris buffer, pH 4.5, 10 mg/ml) was “Insoluble” and the Solubility observation (Tris buffer, pH 5.5, 10 mg/ml) was “Insoluble”. The Solubility observation (Tris buffer, pH 6.4, 10 mg/ml) was “Insoluble”, the Solubility observation (Tryptophan buffer, pH 4.5, 10 mg/ml) was “Clear solution” and the Solubility observation (Tryptophan buffer, pH 5.5, 10 mg/ml) was “Clear solution”. The Solubility observation (Tryptophan buffer, pH 6.4, 10 mg/ml) was “Clear solution”, the Solubility observation (Tryptophan buffer, pH 7.5, 10 mg/ml) was “Clear solution” and the Solubility observation (Valine buffer, pH 4.5, 10 mg/ml) was “Clear solution”. The Solubility observation (Valine buffer, pH 5.5, 10 mg/ml) was “Clear solution”, the Solubility observation (Valine buffer, pH 6.4, 10 mg/ml) was “Clear solution” and the Solubility observation (Valine buffer, pH 7.5, 10 mg/ml) was “Clear solution”. The “time for the absorption to begin” value [2] was 2 h.
